Measurements reported in patent publication US20160109459A1, “Compositions And Methods For Heparan Sulfate As A Biomarker For Transplant Rejection” (Duke University, priority 2012, published 2016).

How the values were obtained:
BALB/c DCs = assay: DC production of pro-inflammatory cytokines by ELISA; format: cell-based, mouse
Method: FIG. 3A is a graph showing WT, TLR4^−/−, or MyD88^−/− BALB/c DCs (2×10^5/well) were stimulated with LPS (100 ng/mL), HS (100 μg/mL), or Pam3CSK4 (2 μg/mL), or left unstimulated (media) for 24 hours, and measured for surface expression of co-stimulatory molecules CD40 and CD80 by FACS analysis. FIGS. 3B and 3C are graphs showing WT, MyD88^−/−, and TLR4^−/− BALB/c cultured DCs were co-cultured with media alone, LPS, HS, or Pam3CSK4 as in (A) and culture supernatants were tested for IL-6 (B) and IL-12 (C) by ELISA. Data are representative of three independent experiments; *p<0.05 compared with media alone.
Lethally irradiated BALB/c recipients received either 1×10^7 B10.D2 TCD-BM only (Allo-BM), 1×10^7 B10.D2 TCD-BM and 5×10^6 B10.D2 LCs (Allo-BM+LC), or 1×10^7 BALB/c TCD-BM and 5×10^6 BALB/c LCs (Syn-BM+LC). FIG. 6A is a graph showing HS concentrations following transplantation as determined by ELISA at the indicated time points; n=2-5 samples per time point; *p<0.05 comparing Allo-BM+LC and Allo-BM at the indicated time point. FIG. 6B is a graph showing the half maximal effective concentration (EC50) of HS on DC stimulation, BALB/c DCs (2×10^5/well) following 24 hr of culture with differing concentrations of HS in triplicate and IL-6 production was tested by ELISA. Results are representative of three independent experiments.
FIG. 13 is a graph showing WT, MyD88^−/−, and TLR4^−/− BALB/c cultured DCs that were co-cultured with media alone, LPS, HS, or Pam3CSK4 and tested for TNF-α as determined by ELISA assay.
Cytokine analysis: Cell culture supernatants were obtained from DC cultures or T cell proliferation assays and assayed for IL-6, IL-12 and IFN-γ by ELISA (BD Biosciences) according to the manufacturer's standard protocols. HEK 293 supernatants were tested for human IL-8 by ELISA (BioLegend, San Diego, United States).
To determine if the in vivo concentrations of HS were sufficient to cause DC activation, the production of IL-6 by cultured DCs in response to a range of HS concentrations was tested (FIG. 6B).

human TLR4 = molecular target: T1, human TLR4 (Homo sapiens, UniProt O00206); assay: NF-κB dual luciferase reporter assay in HEK TLR4-MD2-CD14 cells; format: cell-based; conditions: HS 100 μg/mL, 6 hours, TLR4 expressing cell lines
T1 construct: expressed in transfected cells; host or cells: HEK 293 (gift from Dr. Michael Fessler, NIEHS)
T1 sequence (O00206 24-839): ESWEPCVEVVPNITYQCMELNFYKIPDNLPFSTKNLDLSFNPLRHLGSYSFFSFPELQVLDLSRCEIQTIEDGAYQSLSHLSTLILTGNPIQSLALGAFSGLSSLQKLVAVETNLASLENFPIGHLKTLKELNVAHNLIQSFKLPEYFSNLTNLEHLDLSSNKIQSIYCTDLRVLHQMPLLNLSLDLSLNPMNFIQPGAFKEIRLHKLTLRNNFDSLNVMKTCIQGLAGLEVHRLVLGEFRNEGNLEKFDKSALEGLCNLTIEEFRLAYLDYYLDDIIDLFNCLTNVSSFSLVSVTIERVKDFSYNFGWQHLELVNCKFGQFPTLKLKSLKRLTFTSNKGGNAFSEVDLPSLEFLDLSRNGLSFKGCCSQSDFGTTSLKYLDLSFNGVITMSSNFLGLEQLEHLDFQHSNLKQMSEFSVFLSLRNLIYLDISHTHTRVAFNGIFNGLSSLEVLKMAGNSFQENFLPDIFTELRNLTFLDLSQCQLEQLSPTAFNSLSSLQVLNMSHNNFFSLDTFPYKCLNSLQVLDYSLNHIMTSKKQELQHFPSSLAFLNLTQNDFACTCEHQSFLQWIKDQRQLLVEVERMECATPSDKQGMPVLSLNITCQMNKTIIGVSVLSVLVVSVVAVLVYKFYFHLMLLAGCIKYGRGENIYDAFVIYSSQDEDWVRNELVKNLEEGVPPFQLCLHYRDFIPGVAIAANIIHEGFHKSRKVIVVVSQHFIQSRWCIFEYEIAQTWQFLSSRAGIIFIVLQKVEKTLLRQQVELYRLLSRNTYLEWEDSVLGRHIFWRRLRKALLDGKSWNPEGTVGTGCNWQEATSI
T1 sequence (Q9Y6Y9 17-160 partner limits assumed): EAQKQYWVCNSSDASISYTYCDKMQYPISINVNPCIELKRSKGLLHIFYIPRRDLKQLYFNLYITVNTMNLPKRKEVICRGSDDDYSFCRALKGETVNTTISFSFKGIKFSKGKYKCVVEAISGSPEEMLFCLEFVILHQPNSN
Method: HEK cell lines stably expressing CD14 and MD2 alone (HEK MD2-CD14), or co-expressed with human TLR2 (HEK TLR2-MD2-CD14) or human TLR4 (HEK TLR4-MD2-CD14) were transfected with a plasmid encoding firefly luciferase (F) under control of the NF-κB promoter along with a plasmid expressing Renilla luciferase (R) under control of the thymidine kinase promoter as a transfection control. Cell lines were cultured for 6 hours with media alone, LPS (100 ng/mL), HS (100 μg/mL), or Pam3CSK4 (2 μg/mL). FIG. 5A is a graph showing the ratio of F/R was measured by dual luciferase reporter assay to determine NF-κB activation of lysed cells, *p<0.05 compared with media alone. FIG. 5B is a graph showing results supernatants analyzed for IL-8 production by ELISA. […]
Luciferase reporter assay: Luciferase activity was measured using the Dual-Luciferase Reporter Assay (Promega, Madison, Wis., USA) according to the manufacture's recommended protocol. Luminescence was measured using an LMax Luminometer (Molecular Devices, Sunnyvale, United States).
A heterodimer of different TLRs is required for some PAMPs. […] The ratio of luminescence produced by firefly luciferase to Renilla luciferase (F/R) was then measured in response to media alone, LPS, HS, and Pam3CSK4. The production of IL-8, which is downstream of NF-κB activation, by ELISA was also measured. […]

[1] = BALB/c DCs 2×10^5/well, 24 hr culture

heparan sulfate [HS]
concentration achieving maximal response (IL-6 production by DCs) (BALB/c DCs; [1]): 12.5 µg/mL | half maximal effective concentration (EC50) on DC stimulation (IL-6 production) (BALB/c DCs; [1]): approximately 4 μg/mL | production of IL-6 and IL-12 from TLR4−/− or MyD88−/− DCs (BALB/c DCs; HS 100 μg/mL, 24 h): but not from TLR4^−/− or MyD88^−/− DCs | production of IL-6 and IL-12 from WT DCs (BALB/c DCs; HS 100 μg/mL, 24 h, not inhibited by PMB): stimulated DCs to produce | DC expression of TNF-α (BALB/c DCs; TLR4- and MyD88-dependent): up-regulate | NF-κB activation (ratio F/R) (human TLR4): caused NF-κB activation
